# Publication PMC3728024, “Antidiabetic and Antioxidant Effects and Phytochemicals of Mulberry Fruit (Morus alba L.) Polyphenol Enhanced Extract” (PLoS ONE, 2013)
# Where “and” joins values, the source holds several entries; their conditions need not be identical. Equal entries are not always repeated. Where two headings read alike, the source gives them in different places.
# How the values were obtained:
# [1] = DPPH radical-scavenging assay of the isolated compounds; details: mean ± SD, n = 3
# Experimental: (§1) The DPPH radical-scavenging assay was performed according to a previously described method. All tests were performed in triplicate. Ascorbic acid and gallic acid were used as positive controls.
# [2] = Superoxide anion radical-scavenging assay (NADH/PMS system); details: mean ± SD, n = 3; for EC50: isolated compounds
# Description: Superoxide radical were generated by the NADH/PMS system according to a reported protocol. Gallic acid was used as positive control.
# [3] = molecular target: T1, α-Glucosidase type I (EC 3.2.1.20) (Saccharomyces cerevisiae, UniProt P53341); assay: biochemical
# T1 construct: purchased Sigma-Aldrich Chemical Co. (St. Louis, MO)
# Description: α-Glucosidase type I (EC 3.2.1.20) from baker's yeast, p-nitrophenyl α-D-glucopyranoside (PNPG), streptozotocin (STZ), were purchased from Sigma-Aldrich Chemical Co. (St. Louis, MO). […] Phenazine methosulfate was purchased from J&K Chemical Ltd. (Shanghai, China). 2,2-Diphenyl-1-picrylhdrazyl (DPPH) was product of Aladdin Chemistry Co. Ltd. (Shanghai, China). Silica gel (200–300 mesh, Anhui Liangchen Silicon Material Co. Ltd. Anhui, China), Sephadex LH-20 (Pharmacia Biothech AB, Uppsala, Sweden), and ODS (40–60 μm, Merck KGaA, Darastadt, Germany) were used for column chromatography. HPLC-grade methanol was purchased from Jiangsu Hanbang Science and Technology Co. Ltd. (Nanjing, China). All other analytical chemicals and reagents were purchased from Sinopharm Chemical Regent Co. Ltd. (Shanghai, China).
# The α-glucosidase inhibitory studies were performed spectrophotometrically on 96-well microplate reader according to a reported method. […] The assay was performed in triplicate.
# [4] = DPPH radical-scavenging assay of the extracts; details: DPPH used was 2,2-Di(4-tert-octylphenyl)-1-picrylhydrazyl, mean ± SD, n = 3
# Experimental: as §1
# [5] = test system: STZ-induced diabetic mice; assay: Fasting blood glucose of STZ-induced diabetic mice; type: in vivo; details: 300 mg/kg p.o. two times a day, n = 8
# Experimental: The mice were given 5% glucose solution orally in order to stave off the hypoglycemia during the first day after the injection of STZ [24]. In testing the FBG of the mice, a standard protocol developed by the American National Institute of Health was carried out. […] The FBG was measured using the Accu-Check Active Blood Glucose Meter (Roche Diagnostics, Mannheim, Germany). […] Sample suspended in distilled water containing 0.3% CMC-Na was administered p.o. two times a day for 2 weeks. FBG of the diabetic mice was determined on the day 7 and 14 as described before. On the day 14, the mice were sacrificed under diethyl ether anesthesia after the FBG determination. Blood was collected from the ophthalmic vein and allowed to clot at room temperature for 30 min. The serum was separate by centrifuging at 4000 rpm for 10 min with a refrigerated centrifuge. Liver and kidney were excised. Samples were stored at −20°C until used.
# [6] = test system: STZ-induced diabetic mice; assay: Glycosylated serum protein (GSP) of STZ-induced diabetic mice, NBT colorimetric method; type: in vivo; details: 300 mg/kg p.o. two times a day, n = 8
# Experimental: (§2) Total 32 hyperglycemic mice were divided into four groups according to their FBG (8 mice per group): control (distilled water), MFE 100 (100 mg/kg BW), MFE 200 (200 mg/kg BW), and metformin (300 mg/kg BW). Sample suspended in distilled water containing 0.3% CMC-Na was administered p.o. two times a day for 2 weeks. FBG of the diabetic mice was determined on the day 7 and 14 as described before. On the day 14, the mice were sacrificed under diethyl ether anesthesia after the FBG determination. Blood was collected from the ophthalmic vein and allowed to clot at room temperature for 30 min. The serum was separate by centrifuging at 4000 rpm for 10 min with a refrigerated centrifuge. Liver and kidney were excised. Samples were stored at −20°C until used.
# GSP level was measured according to the nitroblue tetrazolium (NBT) colorimetric method using commercial kits purchased from Nanjing Jiancheng Bioengineering Institute (Nanjing, China). This method based on the ability of the ketoamine group of glycated proteins to reduce tetrazolium salt under alkaline conditions. Fructosamine was used as standard.
# [7] = test system: STZ-induced diabetic mice; assay: SOD activity in serum, kidney and liver of STZ-induced diabetic mice; type: in vivo; details: 300 mg/kg, 2 weeks
# Experimental: as §2
# (§3) 10% solution of tissue homogenate was prepared as follows. Pieces of liver or kidney were homogenized in 9 volumes (w/v) ice-cold saline and centrifuged at 4000 rpm for 8 min. The supernatants were separated and stored at 4°C for analysis. Protein content of tissue homogenate was determined according to the Bradford method. Bovine serum albumin was used as standard. The superoxide dismutase (SOD), catalase (CAT) and glutathione peroxidase (GSH-Px) activities in liver and kidney tissue, the SOD and CAT activities in serum were determined using the respective commercial kits obtained from Nanjing Jiancheng Bioengineering Institute (Nanjing, China). SOD activity was determined by the nitrite method. SOD activity was expressed as units/mg protein or units/mL serum. The activity of CAT was measured using colorimetric method based on the decomposition of hydrogen peroxide (H2O2) by CAT. The enzyme catalysis was stopped by adding the solution of ammonium molybdate which can react with the rest H2O2 and give a yellow product. The product can be measured at 405 nm by its absorbance. The CAT activities of tissue or serum were presented as units/mg protein or units/mL serum respectively. GSH-Px activity was also measured according to a colorimetric method developed by Sedlak. […]
# [8] = test system: STZ-induced diabetic mice; assay: CAT activity in serum, kidney and liver of STZ-induced diabetic mice; type: in vivo; details: 300 mg/kg, 2 weeks
# Experimental: as §2, §3
# [9] = test system: STZ-induced diabetic mice; assay: GSH-Px activity in kidney and liver of STZ-induced diabetic mice; type: in vivo; details: 300 mg/kg, 2 weeks
# Experimental: as §2, with “Samples were stored at −20°C until used.” left out
# 10% solution of tissue homogenate was prepared as follows. […] Protein content of tissue homogenate was determined according to the Bradford method. […] The superoxide dismutase (SOD), catalase (CAT) and glutathione peroxidase (GSH-Px) activities in liver and kidney tissue, the SOD and CAT activities in serum were determined using the respective commercial kits obtained from Nanjing Jiancheng Bioengineering Institute (Nanjing, China). SOD activity was determined by the nitrite method. SOD activity was expressed as units/mg protein or units/mL serum. The activity of CAT was measured using colorimetric method based on the decomposition of hydrogen peroxide (H2O2) by CAT. […]
# [10] = isolated compounds, mean ± SD, n = 3, read-out: IC50 α-glucosidase
# T1 sequence (P53341 whole entry): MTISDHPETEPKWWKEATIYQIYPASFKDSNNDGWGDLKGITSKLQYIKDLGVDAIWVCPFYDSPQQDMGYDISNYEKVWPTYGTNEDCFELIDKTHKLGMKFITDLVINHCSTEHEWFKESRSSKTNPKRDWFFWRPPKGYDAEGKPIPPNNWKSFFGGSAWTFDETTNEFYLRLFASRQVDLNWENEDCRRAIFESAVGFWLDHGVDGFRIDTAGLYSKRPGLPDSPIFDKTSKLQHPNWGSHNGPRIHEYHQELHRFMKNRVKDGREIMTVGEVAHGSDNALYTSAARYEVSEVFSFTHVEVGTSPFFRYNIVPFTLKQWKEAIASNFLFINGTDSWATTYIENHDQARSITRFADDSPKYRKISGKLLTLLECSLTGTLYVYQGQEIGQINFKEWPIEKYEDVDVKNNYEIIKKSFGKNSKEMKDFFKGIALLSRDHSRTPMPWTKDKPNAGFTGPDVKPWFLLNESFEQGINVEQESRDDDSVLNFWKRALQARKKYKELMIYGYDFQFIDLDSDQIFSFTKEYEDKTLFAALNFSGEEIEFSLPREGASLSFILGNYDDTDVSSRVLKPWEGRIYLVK
SMILES,EC50 [1] [µM],EC50 [2] [µM],"IC50 [3, 10] [µM]",further results
"O=C1O[C@H]([C@@H](O)CO)C(O)=C1O [Ascorbic acid, reference compound]",33.5 ± 1.2,> 500,,
"O=c1c(O)c(-c2ccc(O)c(O)c2)oc2cc(O)cc(O)c12 [Compound 1, quercetin]",11.9 ± 0.72,27.9 ± 0.59,,
"O=c1c(O[C@@H]2O[C@H](CO)[C@@H](O)[C@H](O)[C@H]2O)c(-c2ccc(O)c(O)c2)oc2cc(O)cc(O)c12 [Compound 2, quercetin-3-O-β-D-glucopyranoside]",7.89 ± 0.5,,165 ± 11.6,
"CC(=O)OC[C@H]1O[C@@H](Oc2c(-c3ccc(O)c(O)c3)oc3cc(O)cc(O)c3c2=O)[C@H](O)[C@@H](O)[C@@H]1O [Compound 3, quercetin 3-O-(6′′-O-acetyl)-β-D-glucopyranoside]",11.8 ± 1.04,45.1 ± 1.66,310 ± 12.7,
"C[C@@H]1O[C@@H](OC[C@H]2O[C@@H](Oc3c(-c4ccc(O)c(O)c4)oc4cc(O)cc(O)c4c3=O)[C@H](O)[C@@H](O)[C@@H]2O)[C@H](O)[C@H](O)[C@H]1O [Compound 4, quercetin 3-O-β-D-rutinoside]",9.76 ± 0.61,30.6 ± 0.99,166 ± 11.7,
"O=c1c(O)c(-c2ccc(O)c(O)c2)oc2cc(O[C@@H]3O[C@H](CO)[C@@H](O)[C@H](O)[C@H]3O)cc(O)c12 [Compound 5, quercetin 7-O-β-D-glucopyranoside]",9.8 ± 0.53,24.6 ± 1.67,,IC50 [3]: 370 ± 31.2 µM
"O=c1c(O[C@@H]2O[C@H](CO)[C@@H](O)[C@H](O)[C@H]2O)c(-c2ccc(O)c(O)c2)oc2cc(O[C@@H]3O[C@H](CO)[C@@H](O)[C@H](O)[C@H]3O)cc(O)c12 [Compound 6, quercetin 3,7-di-O-β-D-glucopyranoside]",9.18 ± 0.97,50.7 ± 6.7,600 ± 45.9,
"O=c1c(O[C@@H]2O[C@H](CO)[C@@H](O)[C@H](O)[C@H]2O)c(-c2ccc(O)cc2)oc2cc(O)cc(O)c12 [Compound 7, kaempferol 3-O-β-D-glucopyranoside]",301 ± 13.8,122 ± 5.49,,
"C[C@@H]1O[C@@H](OC[C@H]2O[C@@H](Oc3c(-c4ccc(O)cc4)oc4cc(O)cc(O)c4c3=O)[C@H](O)[C@@H](O)[C@@H]2O)[C@H](O)[C@H](O)[C@H]1O [Compound 8, kaempferol 3-O-β-D-rutinoside]",152 ± 5.9,196 ± 7.98,,IC50 [3]: 178.3 ± 0.35 µM
"O=C1C[C@@H](c2ccc(O[C@@H]3O[C@H](CO)[C@@H](O)[C@H](O)[C@H]3O)c(O)c2)Oc2cc(O)cc(O)c21 [Compound 9, 5,7,3′-trihydroxy-flavanone-4′-O-β-D-glucopyranoside]",79.4 ± 4.74,90.7 ± 8.28,,IC50 [3]: 409 ± 38.7 µM
"O=C1C[C@@H](c2ccc(O)c(O[C@@H]3O[C@H](CO)[C@@H](O)[C@H](O)[C@H]3O)c2)Oc2cc(O)cc(O)c21 [Compound 10, 5,7,4′-trihydroxy-flavanone-3′-O-β-D-glucopyranoside]",222 ± 13.8,194 ± 8.12,728 ± 67.7,
"O=C1c2c(O)cc(O[C@@H]3O[C@H](CO)[C@@H](O)[C@H](O)[C@H]3O)cc2O[C@H](c2ccc(O)cc2)[C@H]1O [Compound 11, dihydrokaempferol 7-O-β-D-glucopyranoside]",6.46 ± 0.39,58.3 ± 2.39,933 ± 98.8,
"CC(C)=CCc1c(O)ccc(C(=O)/C=C/c2ccc(O)cc2)c1O [Compound 12, isobavachalcone]",> 500,150 ± 9.1,67.3 ± 5.51,
"CC(C)=CCc1c(O)ccc(C(=O)/C=C/c2ccc(O)cc2O)c1O [Compound 13, 2,4,2′,4′,-tetrahydroxy-3′-(3-methyl-2-butenyl)-chalcone]",> 500,191 ± 15,50 ± 3.18,
C=C(C)C1Cc2c(ccc(C(=O)/C=C/c3ccc(O)cc3)c2O)O1 (stereo not shown) [Compound 14],> 500,175 ± 9.72,,IC50 [3]: 225 ± 4.79 µM
"O=C(O)Cc1c(O)cc(O)cc1OC(=O)c1ccc(O)c(O)c1 [Compound 15, 2-O-(3,4-dihydroxybenzoyl)-2,4,6-trihydroxyphenylacetic acid]",7.87 ± 0.73,15.2 ± 0.7,,IC50 [3]: 116 ± 6.75 µM
"COC(=O)Cc1c(O)cc(O)cc1OC(=O)c1ccc(O)c(O)c1 [Compound 16, 2-O-(3,4-dihydroxybenzoyl)-2,4,6-trihydroxyphenylmethylacetate]",10.8 ± 0.94,37.5 ± 2.62,,IC50 [3]: 31.7 ± 3.38 µM
"O=C(O)c1ccc(O)c(O)c1 [Compound 18, protocatechuic acid]",11.9 ± 0.69,101 ± 8.27,,
"COC(=O)c1ccc(O)c(O)c1 [Compound 20, protocatechuic acid methyl ester]",10.7 ± 0.34,214 ± 16.9,,
"CCOC(=O)c1ccc(O)c(O)c1 [Compound 21, protocatechuic acid ethyl ester]",9.04 ± 0.21,606 ± 25.8,,
"OCCc1ccc(O)cc1 [Compound 24, 2-(4-hydroxyphenyl)ethanol]",> 500,417 ± 23.9,,
"Oc1ccccc1O [Compound 25, pyrocatechol]",6.74 ± 0.28,45.8 ± 2.97,,
"O=C(O)c1cc(O)c(O)c(O)c1 [Gallic acid, reference compound]",5.18 ± 0.34,10.1 ± 0.39,,EC50 DPPH [4]: 4.95 ± 0.24 µg/mL; EC50 Superoxide anion ([2]; extracts): 5.21 ± 0.27 µg/mL
CN(C)C(=N)N=C(N)N [Metformin],,,,FBG day 0 ([5]; day 0): 25.66 ± 5.95 mmol/L; FBG day 7 ([5]; day 7): 15.44±4.57c mmol/L; FBG day 14 ([5]; day 14): 17.38±5.31c mmol/L; GSP day 14 [6]: 6.06±0.47 mmol/L and 6.06±0.47b mmol/L; Kidney SOD ([7]; kidney): 246.56±24.80b units/mg protein; Liver SOD ([7]; liver): 145.03±13.79 units/mg protein; Serum SOD ([7]; serum): 251.29±28.78b units/mL serum; Kidney CAT ([8]; kidney): 21.85±3.90b units/mg protein; Liver CAT ([8]; liver): 27.07±2.74 units/mg protein; Serum CAT ([8]; serum): 50.53±17.87c units/mL serum; Kidney GSH-Px ([9]; kidney): 240.36±40.31; Liver GSH-Px ([9]; liver): 275.78±21.02
